Experimental data taken from the NIST ThermoML archive (doi:10.1016/j.jct.2012.07.007).
Numbers after ± are expanded uncertainties.

Details: 101.33 kPa, Liquid; for speed of sound: Linear variable-path acoustic interferometer; for mass density: Vibrating tube method

Row | Compound | speed of sound (293.15 K) [m/s] | mass density (293.15 K) [kg/m3] | speed of sound (298.15 K) [m/s] | mass density (298.15 K) [kg/m3] | speed of sound (303.15 K) [m/s] | mass density (303.15 K) [kg/m3] | speed of sound (308.15 K) [m/s] | mass density (308.15 K) [kg/m3]
1 | Cc1ccccn1 [2-methylpyridine] | 1400.5 ± 2.5 | 944.401 ± 0.77 | 1380.1 ± 2.5 | 939.802 ± 0.77 | 1361 ± 2.5 | 935.117 ± 0.76 | 1339.9 ± 2.5 | 930.414 ± 0.76
2 | c1ccncc1 [pyridine] | 1442 ± 1.8 | 983.191 ± 0.23 | 1417.8 ± 1.8 | 978.249 ± 0.23 | 1398 ± 1.8 | 973.224 ± 0.23 | 1377.1 ± 1.8 | 968.166 ± 0.23
3 | Cc1cccnc1 [3-methylpyridine] | 1445.9 ± 1.8 | 956.581 ± 0.23 | 1424 ± 1.8 | 952.002 ± 0.23 | 1404 ± 1.8 | 947.449 ± 0.23 | 1384 ± 1.8 | 942.831 ± 0.23

Other lines, results leading:

Row | speed of sound (293.15 K) [m/s] | mass density (293.15 K) [kg/m3] | speed of sound (298.15 K) [m/s] | mass density (298.15 K) [kg/m3] | speed of sound (303.15 K) [m/s] | mass density (303.15 K) [kg/m3] | speed of sound (308.15 K) [m/s] | mass density (308.15 K) [kg/m3] | Compound
4 | 1451.1 ± 1.8 | 955.099 ± 0.23 | 1431.5 ± 1.8 | 950.179 ± 0.23 | 1410.7 ± 1.8 | 945.413 ± 0.23 | 1389.9 ± 1.8 | 940.821 ± 0.23 | Cc1ccncc1 [4-methylpyridine]
5 | 1631 ± 2.6 | 1283.89 ± 1.5 | 1619.4 ± 2.6 | 1279.91 ± 1.5 | 1607.6 ± 2.6 | 1276.26 ± 1.5 | 1596.3 ± 2.6 | 1272.07 ± 1.4 | CCn1cc[n+](C)c1.F[B-](F)(F)F [1-ethyl-3-methylimidazolium tetrafluoroborate]
